# Test results as given in PubChem BioAssay AID1919010 (Molecular Pharmacology Branch, DTP, NCI, 2023).
# pIC50: −log10 of the molar value.
# Test system: Hs578T complex spheroid growth, percent test/control
# Test: Anticancer human tumor Hs578T cell line growth inhibition [AhR];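 further: luminescent viability signal as a proxy for spheroid growth; spheroids exposed to agents for one week after three days of growth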
# Settings: for pIC50: curve of first compound; for viability, T/C: stronger effect = lower value
# In short: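 Agents were dosed in half-log steps down from roughly clinical Cmax, or from 10 microM where Cmax was unknown, alone and with AhR antagonists. Read-out: percent test/control growth of tumor spheroids containing HUVEC and MSC stromal cells.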
# [1] = second compound 0.1 µM, first compound 0.0316 µM
# [2] = second compound 0.1 µM, first compound 0.1 µM
# [3] = second compound 0.1 µM, first compound 0.316 µM
# [4] = second compound 0.1 µM, first compound 1 µM
# [5] = second compound 0.1 µM, first compound 3.16 µM
# [6] = second compound 0.1 µM, first compound 10 µM
# [7] = second compound 0.316 µM, first compound 0.0316 µM
# [8] = second compound 0.316 µM, first compound 0.1 µM
# [9] = second compound 0.316 µM, first compound 0.316 µM
# [10] = second compound 0.316 µM, first compound 1 µM
# [11] = second compound 0.316 µM, first compound 3.16 µM
# [12] = second compound 0.316 µM, first compound 10 µM
# [13] = second compound 1 µM, first compound 0.0316 µM
# [14] = second compound 1 µM, first compound 0.1 µM
# [15] = second compound 1 µM, first compound 0.316 µM
# [16] = second compound 1 µM, first compound 1 µM
# [17] = second compound 1 µM, first compound 3.16 µM
# [18] = second compound 1 µM, first compound 10 µM
# [19] = second compound 3.16 µM, first compound 0.0316 µM
# [20] = second compound 3.16 µM, first compound 0.1 µM
# [21] = second compound 3.16 µM, first compound 0.316 µM
# [22] = second compound 3.16 µM, first compound 1 µM
# [23] = second compound 3.16 µM, first compound 3.16 µM
# [24] = second compound 3.16 µM, first compound 10 µM
# [25] = second compound 10 µM, first compound 0.0316 µM
# [26] = second compound 10 µM, first compound 0.1 µM
# [27] = second compound 10 µM, first compound 0.316 µM
# [28] = second compound 10 µM, first compound 1 µM
# [29] = second compound 10 µM, first compound 3.16 µM
# [30] = second compound 10 µM, first compound 10 µM
Compound,pIC50 (second compound 0.1 µM),pIC50 (second compound 0.316 µM),pIC50 (second compound 1 µM),pIC50 (second compound 3.16 µM),pIC50 (second compound 10 µM),"viability, T/C [1] [%]","viability, T/C [2] [%]","viability, T/C [3] [%]","viability, T/C [4] [%]","viability, T/C [5] [%]","viability, T/C [6] [%]","viability, T/C [7] [%]","viability, T/C [8] [%]","viability, T/C [9] [%]","viability, T/C [13] [%]","viability, T/C [14] [%]","viability, T/C [19] [%]","viability, T/C [20] [%]","viability, T/C [25] [%]","viability, T/C [26] [%]",also measured
COc1cc(Nc2ncc3c(n2)-c2ccc(Cl)cc2C(c2c(F)cccc2OC)=NC3)ccc1C(=O)O + CC(CO)NC(=O)c1cc(-c2ccc(Cl)cc2)nn(-c2cnn(C)c2)c1=O,< 5.00,< 5.00,< 5.00,< 5.00,< 5.00,99.8,92.3,104,99.1,93.3,59.6,94.6,96,100,102,102,95.5,91.6,84.9,84,"viability, T/C [10]: 93.4%; viability, T/C [11]: 84.4%; viability, T/C [12]: 51.8%; viability, T/C [15]: 114%; viability, T/C [16]: 99%; viability, T/C [17]: 85.3%; viability, T/C [18]: 68.6%; viability, T/C [21]: 101%; viability, T/C [22]: 102%; viability, T/C [23]: 84.7%; viability, T/C [24]: 67.3%; viability, T/C [27]: 93.6%; viability, T/C [28]: 97.8%; viability, T/C [29]: 83.5%; viability, T/C [30]: 72.3%"
Cn1ncnc1C1c2n[nH]c(=O)c3cc(F)cc(c23)NC1c1ccc(F)cc1 (stereo not given) + CC(CO)NC(=O)c1cc(-c2ccc(Cl)cc2)nn(-c2cnn(C)c2)c1=O,< 7.00,< 7.00,< 7.00,< 7.00,< 7.00,117,120,,,,,118,108,,117,109,118,118,109,118,"viability, T/C (second compound 0.1 µM, first compound 0.000316 µM): 111%; viability, T/C (second compound 0.1 µM, first compound 0.001 µM): 118%; viability, T/C (second compound 0.1 µM, first compound 0.00316 µM): 117%; viability, T/C (second compound 0.1 µM, first compound 0.01 µM): 109%; viability, T/C (second compound 0.316 µM, first compound 0.000316 µM): 110%; viability, T/C (second compound 0.316 µM, first compound 0.001 µM): 115%; viability, T/C (second compound 0.316 µM, first compound 0.00316 µM): 125%; viability, T/C (second compound 0.316 µM, first compound 0.01 µM): 118%; viability, T/C (second compound 1 µM, first compound 0.000316 µM): 112%; viability, T/C (second compound 1 µM, first compound 0.001 µM): 131%; viability, T/C (second compound 1 µM, first compound 0.00316 µM): 127%; viability, T/C (second compound 1 µM, first compound 0.01 µM): 109%; viability, T/C (second compound 3.16 µM, first compound 0.000316 µM): 108%; viability, T/C (second compound 3.16 µM, first compound 0.001 µM): 127%; viability, T/C (second compound 3.16 µM, first compound 0.00316 µM): 140%; viability, T/C (second compound 3.16 µM, first compound 0.01 µM): 114%; viability, T/C (second compound 10 µM, first compound 0.000316 µM): 95.1%; viability, T/C (second compound 10 µM, first compound 0.001 µM): 110%; viability, T/C (second compound 10 µM, first compound 0.00316 µM): 104%; viability, T/C (second compound 10 µM, first compound 0.01 µM): 95.6%"
NS(=O)(=O)OCC1CC(n2ccc3c(NC4CCc5ccccc54)ncnc32)CC1O (stereo not given) + CC(CO)NC(=O)c1cc(-c2ccc(Cl)cc2)nn(-c2cnn(C)c2)c1=O,6.04,6.00,5.91,5.70,5.63,104,95.3,69.9,47.6,41.4,33,114,81,75,109,90.6,119,91.3,95.1,96.6,"viability, T/C [10]: 50%; viability, T/C [11]: 30.1%; viability, T/C [12]: 29.4%; viability, T/C [15]: 77.9%; viability, T/C [16]: 52.7%; viability, T/C [17]: 34.7%; viability, T/C [18]: 27.8%; viability, T/C [21]: 90.2%; viability, T/C [22]: 55.9%; viability, T/C [23]: 41.6%; viability, T/C [24]: 34.8%; viability, T/C [27]: 88.9%; viability, T/C [28]: 65.2%; viability, T/C [29]: 44.1%; viability, T/C [30]: 40.8%"
O=C(C=Cc1cccc(S(=O)(=O)Nc2ccccc2)c1)NO + CC(CO)NC(=O)c1cc(-c2ccc(Cl)cc2)nn(-c2cnn(C)c2)c1=O,5.59,5.60,5.56,5.62,5.64,112,113,102,82.6,43.2,2.61,115,116,103,109,117,106,113,93.5,94.8,"viability, T/C [10]: 82.5%; viability, T/C [11]: 41.8%; viability, T/C [12]: 2%; viability, T/C [15]: 106%; viability, T/C [16]: 89.8%; viability, T/C [17]: 45.1%; viability, T/C [18]: 2.32%; viability, T/C [21]: 107%; viability, T/C [22]: 80.8%; viability, T/C [23]: 41.1%; viability, T/C [24]: 2.02%; viability, T/C [27]: 93.6%; viability, T/C [28]: 70.5%; viability, T/C [29]: 42.1%; viability, T/C [30]: 1.62%"
